Assay results taken from ChEMBL document CHEMBL1122202, “Ultra-short-acting beta-adrenergic receptor blocking agents. 1. (Aryloxy)propanolamines containing esters in the nitrogen substituent” (J Med Chem, 1982).
Calls of active or inactive are those of the source. No cut-off for these calls is given here.

Legend:
[1] = molecular target: Beta-2 adrenergic receptor (Cavia porcellus, UniProt Q8K4Z4); experiment: In vitro ability to block beta-2 adrenergic receptor in guinea pig trachea.; format: tissue-based; conditions: read-out: pA2 (converted)
Chain of Beta-2 adrenergic receptor (Q8K4Z4 whole entry): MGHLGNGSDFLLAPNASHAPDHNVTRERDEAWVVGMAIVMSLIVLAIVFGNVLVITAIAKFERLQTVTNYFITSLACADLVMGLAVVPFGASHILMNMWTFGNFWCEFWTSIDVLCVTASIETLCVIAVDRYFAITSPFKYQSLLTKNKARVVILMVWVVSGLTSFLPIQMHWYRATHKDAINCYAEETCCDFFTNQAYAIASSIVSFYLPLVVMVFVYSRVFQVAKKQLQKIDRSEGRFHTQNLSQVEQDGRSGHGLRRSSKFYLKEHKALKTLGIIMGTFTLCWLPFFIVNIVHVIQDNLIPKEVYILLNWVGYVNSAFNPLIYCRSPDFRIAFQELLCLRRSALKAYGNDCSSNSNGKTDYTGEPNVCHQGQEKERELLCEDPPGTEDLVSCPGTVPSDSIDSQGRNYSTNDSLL

[2] = molecular target: T1, Beta-1 adrenergic receptor (Cavia porcellus, UniProt B0FL73); experiment: In vitro ability to block beta-1 adrenergic receptor in guinea pig right atria.; conditions: read-out: pA2 (converted)
T1 sequence (B0FL73 whole entry): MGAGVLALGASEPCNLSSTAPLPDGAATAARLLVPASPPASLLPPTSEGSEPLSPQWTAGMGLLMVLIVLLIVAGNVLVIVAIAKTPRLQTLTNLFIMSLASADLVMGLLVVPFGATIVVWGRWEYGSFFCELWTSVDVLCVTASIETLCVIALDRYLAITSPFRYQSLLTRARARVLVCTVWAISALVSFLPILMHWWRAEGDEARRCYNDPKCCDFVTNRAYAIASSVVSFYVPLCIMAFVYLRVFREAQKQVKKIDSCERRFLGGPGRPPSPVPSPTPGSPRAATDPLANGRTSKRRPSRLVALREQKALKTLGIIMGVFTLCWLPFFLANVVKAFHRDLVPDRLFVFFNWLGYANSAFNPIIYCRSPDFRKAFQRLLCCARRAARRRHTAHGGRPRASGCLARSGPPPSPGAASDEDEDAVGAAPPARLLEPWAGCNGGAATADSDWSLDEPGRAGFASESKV

[3] = molecular target: Beta-1 adrenergic receptor (Cavia porcellus) (UniProt B0FL73); experiment: The compound was tested in vivo for its ability to block Beta-1 adrenergic receptor in guinea pig right atria at a duration of 3h; format: functional, organism-based
Chain of Beta-1 adrenergic receptor (Cavia porcellus) (B0FL73 1-467): as the sequence (B0FL73 whole entry) above

[4] = molecular target: Beta-2 adrenergic receptor (Cavia porcellus) (UniProt Q8K4Z4); experiment: The compound was tested in vitro for its ability to block Beta-2 adrenergic receptor in guinea pig trachea; Inactive at 10E-5 M; format: tissue-based
Chain of Beta-2 adrenergic receptor (Cavia porcellus) (UniProt Q8K4Z4) (Q8K4Z4 whole entry, looked up): as the sequence (Q8K4Z4 whole entry) above

[5] = molecular target: Beta-1 adrenergic receptor (Cavia porcellus) (UniProt B0FL73); experiment: The compound was tested in vitro for its ability to block Beta-1 adrenergic receptor in guinea pig right atria; Inactive at 10E-5 M
[6] = molecular target: Beta-1 adrenergic receptor (Cavia porcellus) (UniProt B0FL73)
Description: The compound was tested in vivo for its ability to block Beta-1 adrenergic receptor in guinea pig right atria at a duration of 40 min

[7] = molecular target: Beta-1 adrenergic receptor (Cavia porcellus) (UniProt B0FL73); experiment: In vivo inhibition of Beta-1 adrenergic receptor in guinea pig right atria after 40 min; format: functional, organism-based
[8] = molecular target: T1, Beta-1 adrenergic receptor; experiment: The compound was tested in vitro for its ability to block Beta-1 adrenergic receptor in guinea pig right atria; conditions: read-out: pA2 (converted)
[9] = molecular target: T1, Beta-1 adrenergic receptor; experiment: The compound was tested in vitro for its ability to block Beta-1 adrenergic receptor n guinea pig trachea; format: tissue-based; conditions: read-out: pA2 (converted)
[10] = Cardioselectivity expressed as antilog of pA2 (atria)-pA2 (trachea).
[11] = molecular target: Beta-1 adrenergic receptor (Cavia porcellus) (UniProt B0FL73); experiment: The compound was tested in vivo for its ability to block […] adrenergic receptor n guinea pig right atria at a duration of 3h; format: organism-based
[12] = molecular target: Beta-2 adrenergic receptor (Cavia porcellus); experiment: The compound was tested in vitro for its ability to block beta-2-adrenergic receptor in guinea pig trachea; conditions: read-out: pA2 (converted)

Row | Structure (SMILES) | Kb [1] | Kb [2] | also measured
1 | CCOC(=O)CCNCC(O)COc1ccccc1Cl (stereo not given) | – | – | In vivo duration [3]: > 60 min
2 | O=C(O)CNCC(O)COc1ccccc1 (stereo not given) | – | – | pA2 [4]: inactive; pA2 [5]: inactive
3 | Cc1ccccc1OCC(O)CNCC(C)C (stereo not given) | 6.31 nM | 2.51 nM | –
4 | CCOC(=O)c1ccc(NCC(O)COc2ccccc2C)cc1 (stereo not given) | – | 7940 nM | –
5 | CCOC(=O)CCNCC(O)COc1ccccc1 (stereo not given) | – | – | In vivo duration [6]: 29 min
6 | NCC(O)COc1cccc2ccccc12 (stereo not given) | 501 nM | 316 nM | –
7 | CCOC(=O)c1cccc(NCC(O)COc2ccccc2C)c1 (stereo not given) | – | 6310 nM | –
8 | O=C(CCNCC(O)COc1ccccc1)Oc1ccc(F)cc1 (stereo not given) | – | – | Kb [8]: 2000 nM
9 | O=C1CCCN1CC(O)COc1ccccc1 (stereo not given) | – | – | pA2 [4]: inactive; pA2 [5]: inactive
10 | CCOC(=O)CNCC(O)COc1cccc2ccccc12 (stereo not given) | – | – | In vivo duration [7]: 53 min
11 | CCOC(=O)CCNCC(O)COc1ccc(Cl)cc1 (stereo not given) | – | – | pA2 [5]: inactive
12 | CCOC(=O)CCCNCC(O)COc1ccccc1C (stereo not given) | – | – | In vivo duration [7]: 15 min; In vivo duration [3]: > 60 min
13 | O=C1CCC(=O)N1CC(O)COc1ccccc1 (stereo not given) | – | – | pA2 [5]: inactive
14 | CCOC(=O)c1ccc(CNCC(O)COc2ccccc2C)cc1 (stereo not given) | – | 251 nM | Kb [9]: 1260 nM; Cardio selectivity [10]: 5
15 | O=C(CCNCC(O)COc1ccccc1)OCC(F)(F)F (stereo not given) | – | 2000 nM | –
16 | CC(C)CNCC(O)COc1cccc2ccccc12 (stereo not given) | 1.26 nM | 2 nM | In vivo duration [7]: 46 min; In vivo duration [3]: > 60 min
17 | NC(=O)CNCC(O)COc1cccc2ccccc12 (stereo not given) | 631 nM | 631 nM | –
18 | CC(C)CNCC(O)COc1ccccc1 (stereo not given) | 39.8 nM | 10 nM | Cardio selectivity [10]: 5
19 | NCC(O)COc1ccccc1 (stereo not given) | 1260 nM | 126 nM | Cardio selectivity [10]: 10
20 | O=C(CCNCC(O)COc1ccccc1)Oc1ccccc1 (stereo not given) | – | – | Kb [8]: 398 nM; In vivo duration [11]: > 60 min
21 | CCOC(=O)C(NCC(O)COc1ccccc1C)C(=O)OCC (stereo not given) | – | 1260 nM | –
22 | COc1ccc(CCOC(=O)CCNCC(O)COc2ccccc2)cc1OC (stereo not given) | – | 100 nM | Kb [12]: 251 nM
23 | CCOC(=O)CCNCC(O)COc1cccc(Cl)c1 (stereo not given) | – | – | In vivo duration [3]: > 60 min

The next lines start with results.

Row | Kb [1] | Kb [2] | Structure (SMILES) | also measured
24 | 7.94 nM | 3.16 nM | CCOC(=O)CC(C)(C)NCC(O)COc1ccccc1C (stereo not given) | In vivo duration [3]: > 60 min
25 | – | 31.6 nM | COC(=O)CCNCC(O)COc1ccccc1C (stereo not given) | –
26 | – | 15.8 nM | CCOC(=O)CCCCNCC(O)COc1ccccc1C (stereo not given) | In vivo duration [7]: 20 min
27 | 2000 nM | 3160 nM | COC(=O)CNCC(O)COc1ccccc1C (stereo not given) | –
28 | 50.1 nM | 39.8 nM | CCOC(=O)CCNCC(O)COc1cccc2ccccc12 (stereo not given) | In vivo duration [7]: 17 min
29 | 100 nM | – | COC(=O)CCNCC(O)COc1cccc2ccccc12 (stereo not given) | –
30 | – | 31.6 nM | CCOC(=O)CCNCC(O)COc1ccccc1C (stereo not given) | In vivo duration [7]: 14 min
31 | – | 398 nM | CCOC(=O)CCNCC(O)COc1cccc(OC)c1 (stereo not given) | –
32 | – | 200 nM | CCOC(=O)CCNCC(O)COc1cccc(C)c1 (stereo not given) | –
33 | 1000 nM | – | CCOC(=O)CCNCC(O)COc1c(C)cccc1C (stereo not given) | Kb [8]: 794 nM
34 | – | 1260 nM | CCOC(=O)CNCC(O)COc1ccccc1C (stereo not given) | –
35 | – | 1580 nM | CCOC(=O)CCNCC(O)COc1ccc(OC)cc1 (stereo not given) | –
